Measurements reported in ChEMBL document CHEMBL1201862, “PubChem BioAssay data set” (2004).
Several values for one entry are separate records, joined by “and”; a condition that tells them apart may be missing. Identical values can stand only once.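 Cultured in 96-well plates, cells were exposed to test compound for 48 hours across five concentrations. Abbreviation: GI50, concentration required for 50% inhibition of growth.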 Activity calls are given as the source filed them. No stated cut-off is given here; in the data, active = GI50 up to about 1.1 µM and inactive = higher.

What was measured:
Experiment in all cases: growth of human tumour cells (NCI), 48 h
A498 = system: A498
CAKI-1 = system: CAKI-1
HCT-116 = system: HCT-116
HL-60 = system: HL-60
HOP-62 = system: HOP-62
HOP-92 = system: HOP-92
Malme-3M = system: Malme-3M
NCI-H23 = system: NCI-H23
OVCAR-3 = system: OVCAR-3
OVCAR-8 = system: OVCAR-8
RPMI-8226 = system: RPMI-8226
SF-295 = system: SF-295
SK-OV-3 = system: SK-OV-3
SW-620 = system: SW-620
UACC-257 = system: UACC-257
OVCAR-5 = system: OVCAR-5

SMILES	GI50 (A498)	GI50 (CAKI-1)	GI50 (HCT-116)	GI50 (HL-60)	GI50 (HOP-62)	GI50 (HOP-92)	GI50 (Malme-3M)	GI50 (NCI-H23)	GI50 (OVCAR-3)	GI50 (OVCAR-8)	GI50 (RPMI-8226)	GI50 (SF-295)	GI50 (SK-OV-3)	GI50 (SW-620)	GI50 (UACC-257)	GI50 (OVCAR-5)
CCCCCCCCCCCCCCCCCCOCC(C[N+]1(C)CCC(O)CC1)OCC (stereo unspecified)	11.7 µM (inactive)	5.65 µM (inactive)	7.71 µM (inactive)	1.79 µM (inactive)	4.23 µM (inactive)	1.78 µM (inactive)	12.3 µM (inactive)	2.88 µM (inactive)	3.85 µM (inactive)	4.2 µM (inactive)	2.77 µM (inactive)	4.68 µM (inactive)	2.92 µM (inactive)	5.48 µM (inactive)	10.9 µM (inactive)	–
C#CC[N+](C)(CC#C)CC#C	–	> 100 µM (inactive)	–	> 100 µM (inactive)	> 100 µM (inactive)	> 100 µM (inactive)	> 100 µM (inactive)	> 100 µM (inactive)	> 100 µM (inactive)	> 100 µM (inactive)	> 100 µM (inactive)	> 100 µM (inactive)	> 100 µM (inactive)	> 100 µM (inactive)	> 100 µM (inactive)	> 100 µM (inactive)
O/N=C1/C(=C/c2ccc(Br)cc2)CCCC1C(NO)c1ccc(Br)cc1 (stereo unspecified)	10.3 µM (inactive)	–	16.5 µM (inactive)	> 100 µM (inactive)	–	12.6 µM (inactive)	15.7 µM (inactive)	> 10 µM (inactive)	17.4 µM (inactive)	16.1 µM (inactive)	17.8 µM (inactive)	16.7 µM (inactive)	24.7 µM (inactive)	20.4 µM (inactive)	17.5 µM (inactive)	11.4 µM (inactive)
Cn1c(=O)nc2n(-c3cccc(Cl)c3)c3ccccc3nc-2c1=O	30.5 µM (inactive)	33.7 µM (inactive)	13.8 µM (inactive)	–	28.6 µM (inactive)	–	3.5 µM (inactive)	5.9 µM (inactive)	2.45 µM (inactive)	18 µM (inactive)	15.5 µM (inactive)	16.6 µM (inactive)	78.9 µM (inactive)	11.2 µM (inactive)	10.9 µM (inactive)	22.5 µM (inactive)
O=C(O[C@H]1[C@@H]2C=CO[C@@H](OC3OC(CO)C(O)C(O)C3O)[C@@H]2[C@@]2(CO)O[C@@H]12)c1ccc(O)c(O)c1 (stereo partly specified)	> 100 µM (inactive)	> 100 µM (inactive)	–	> 100 µM (inactive)	> 100 µM (inactive)	> 100 µM (inactive)	> 100 µM (inactive)	> 100 µM (inactive)	> 100 µM (inactive)	> 100 µM (inactive)	> 100 µM (inactive)	> 100 µM (inactive)	> 100 µM (inactive)	> 100 µM (inactive)	> 100 µM (inactive)	> 100 µM (inactive)
CCCCCCCCCCNCCSSCc1ccc(Cl)cc1	10.2 µM (inactive)	2.18 µM (inactive)	1.73 µM (inactive)	1.75 µM (inactive)	–	–	2.95 µM (inactive)	–	1.96 µM (inactive)	2.07 µM (inactive)	–	1.91 µM (inactive)	3.84 µM (inactive)	1.6 µM (inactive)	0.714 µM (active)	1.91 µM (inactive)
CC1OC(OC23C(=O)CC(C)(O)CC2(O)C=CC2=C3C(=O)c3ccc(C4CC(OC5CCC(OC6CC(O)C(O)C(C)O6)C(C)O5)C(O)C(C)O4)c(O)c3C2=O)CCC1O (stereo unspecified)	–	19.1 µM (inactive) and 19.8 µM (inactive)	–	4.42 µM (inactive) and 6.03 µM (inactive)	27 µM (inactive) and 21.5 µM (inactive)	–	3.02 µM (inactive) and 1.57 µM (inactive)	16.4 µM (inactive) and 18.5 µM (inactive)	–	–	13.2 µM (inactive) and 10 µM (inactive)	–	28.1 µM (inactive) and 17.9 µM (inactive)	4.86 µM (inactive) and 3.39 µM (inactive)	17.9 µM (inactive) and 15.2 µM (inactive)	19.1 µM (inactive) and 20.6 µM (inactive)
C[N+](C)(C)CC1CCC(C[N+](C)(C)C)C1=NO (stereo unspecified)	> 100 µM (inactive)	–	> 100 µM (inactive)	> 100 µM (inactive)	> 100 µM (inactive)	–	> 100 µM (inactive)	> 100 µM (inactive)	> 100 µM (inactive)	> 100 µM (inactive)	> 100 µM (inactive)	> 100 µM (inactive)	> 100 µM (inactive)	> 100 µM (inactive)	> 100 µM (inactive)	–
Cc1nc(Nc2ccccc2)sc1C(=O)CC(=O)C(=O)Nc1c(C(C)C)cccc1C(C)C	–	66.2 µM (inactive)	> 100 µM (inactive)	67.9 µM (inactive)	97.7 µM (inactive)	32.6 µM (inactive)	> 100 µM (inactive)	85.5 µM (inactive)	97.9 µM (inactive)	> 100 µM (inactive)	–	> 100 µM (inactive)	> 100 µM (inactive)	> 100 µM (inactive)	> 100 µM (inactive)	> 100 µM (inactive)
